Test results reported in ChEMBL document CHEMBL1240496, “Development of potent glucagon-like peptide-1 agonists with high enzyme stability via introduction of multiple lactam bridges” (J Med Chem, 2010).
pEC50: −log10 of the molar value. Bridge positions count the residues as written; N and C are the ends. Peptide text beside a SMILES is read from it.

What was measured:
[1] = target: T1, Glucagon-like peptide 1 receptor (Homo sapiens, UniProt P43220); assay: Activation of human GLP1 receptor expressed in HEK293 cells assessed as increase in cAMP accumulation relative to GLP1; type: functional, cell-based
[2] = system: NEP 24.11; assay: Chemical stability of the compound assessed as half life up to 24 hrs by HPLC analysis in presence of human recombinant NEP 24.11; type: physicochemical
[3] = system: DPP4; assay: Chemical stability of the compound assessed as half life up to 24 hrs by HPLC analysis in presence of human recombinant DPP4; type: physicochemical
[4] = target: T1, Glucagon-like peptide 1 receptor; assay: Activation of human GLP1 receptor expressed in HEK293 cells assessed as increase in cAMP accumulation; type: functional, cell-based; settings: for pEC50: read-out: EC50

T1 sequence (P43220 whole entry): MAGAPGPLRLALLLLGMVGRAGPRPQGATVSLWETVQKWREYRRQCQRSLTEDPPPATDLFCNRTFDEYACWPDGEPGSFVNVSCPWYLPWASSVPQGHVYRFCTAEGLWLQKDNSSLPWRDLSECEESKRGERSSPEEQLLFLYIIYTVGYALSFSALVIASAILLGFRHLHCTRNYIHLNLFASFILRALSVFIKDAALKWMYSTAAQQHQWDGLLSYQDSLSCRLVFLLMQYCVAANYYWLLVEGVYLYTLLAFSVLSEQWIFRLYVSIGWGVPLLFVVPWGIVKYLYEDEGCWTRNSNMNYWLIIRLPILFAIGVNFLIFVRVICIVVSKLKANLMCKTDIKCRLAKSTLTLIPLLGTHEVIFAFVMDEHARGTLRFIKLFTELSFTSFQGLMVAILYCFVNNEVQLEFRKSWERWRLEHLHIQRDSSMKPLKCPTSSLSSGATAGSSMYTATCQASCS

Row | Compound | Activity [1] | half-life [2] | half-life [3] | pEC50 [4] | EC50 ([4]; read-out: pEC50 (converted))
1 | CC[C@H](C)[C@H](NC(=O)[C@H](Cc1ccccc1)NC(=O)[C@H](CCC(=O)O)NC(=O)[C@H](CCCCN)NC(=O)[C@H](C)NC(=O)[C@H](C)NC(=O)[C@H](CCC(N)=O)NC(=O)CNC(=O)[C@H](CCC(=O)O)NC(=O)[C@H](CC(C)C)NC(=O)[C@H](Cc1ccc(O)cc1)NC(=O)[C@H](CO)NC(=O)[C@H](CO)NC(=O)[C@@H](NC(=O)[C@H](CC(=O)O)NC(=O)[C@H](CO)NC(=O)[C@@H](NC(=O)[C@H](Cc1ccccc1)NC(=O)[C@@H](NC(=O)CNC(=O)[C@H](CCC(=O)O)NC(=O)[C@H](C)NC(=O)[C@@H](N)Cc1cnc[nH]1)[C@@H](C)O)[C@@H](C)O)C(C)C)C(=O)N[C@H]1CCC(=O)NCCCC[C@@H](C(=O)NCC(=O)N[C@@H](CCCNC(=N)N)C(N)=O)NC(=O)[C@H](C(C)C)NC(=O)[C@H](CC(C)C)NC(=O)[C@H](Cc2c[nH]c3ccccc23)NC1=O | 90% | 6.9 h | 3.3 h | 8.28 | 2.51 nM
2 | CC[C@H](C)[C@H](NC(=O)[C@H](Cc1ccccc1)NC(=O)[C@H](CCC(=O)O)NC(=O)[C@@H]1CCCCNC(=O)CC[C@H](NC(=O)[C@H](CCC(=O)O)NC(=O)[C@@H]2CCCCNC(=O)CC[C@H](NC(=O)[C@H](CC(=O)O)NC(=O)[C@H](CO)NC(=O)[C@@H](NC(=O)[C@H](Cc3ccccc3)NC(=O)[C@@H](NC(=O)CNC(=O)[C@H](CCC(=O)O)NC(=O)[C@H](C)NC(=O)[C@@H](N)Cc3cnc[nH]3)[C@@H](C)O)[C@@H](C)O)C(=O)N[C@@H](CO)C(=O)N[C@@H](CO)C(=O)N[C@@H](Cc3ccc(O)cc3)C(=O)N2)C(=O)N[C@@H](CCC(N)=O)C(=O)N[C@@H](C)C(=O)N[C@@H](C)C(=O)N1)C(=O)N[C@H]1CCC(=O)NCCCC[C@@H](C(=O)NCC(=O)N[C@@H](CCCNC(=N)N)C(N)=O)NC(=O)[C@H](C(C)C)NC(=O)[C@H](CC(C)C)NC(=O)[C@H](Cc2c[nH]c3ccccc23)NC1=O (H-HAEGTFTSDESSYKEEQAAKEFIEWLVKGR-NH2; lactam 10-14, 16-20, 24-28) | 260% |  |  |  | 
3 | CC[C@H](C)[C@H](NC(=O)[C@H](Cc1ccccc1)NC(=O)[C@H](CCC(=O)O)NC(=O)[C@H](CCCCN)NC(=O)[C@H](C)NC(=O)[C@H](C)NC(=O)[C@H](CCC(N)=O)NC(=O)CNC(=O)[C@H](CCC(=O)O)NC(=O)[C@@H]1CCCCNC(=O)CC[C@H](NC(=O)[C@H](CC(=O)O)NC(=O)[C@H](CO)NC(=O)[C@@H](NC(=O)[C@H](Cc2ccccc2)NC(=O)[C@@H](NC(=O)CNC(=O)[C@H](CCC(=O)O)NC(=O)[C@H](C)NC(=O)[C@@H](N)Cc2cnc[nH]2)[C@@H](C)O)[C@@H](C)O)C(=O)N[C@@H](CO)C(=O)N[C@@H](CO)C(=O)N[C@@H](Cc2ccc(O)cc2)C(=O)N1)C(=O)N[C@H]1CCC(=O)NCCCC[C@@H](C(=O)NCC(=O)N[C@@H](CCCNC(=N)N)C(N)=O)NC(=O)[C@H](C(C)C)NC(=O)[C@H](CC(C)C)NC(=O)[C@H](Cc2c[nH]c3ccccc23)NC1=O (H-HAEGTFTSDESSYKEGQAAKEFIEWLVKGR-NH2; lactam 10-14, 24-28) | 140% |  |  |  | 
4 | CC[C@H](C)[C@H](NC(=O)[C@H](Cc1ccccc1)NC(=O)[C@H](CCC(=O)O)NC(=O)[C@H](CCCCN)NC(=O)[C@H](C)NC(=O)[C@H](C)NC(=O)[C@H](CCC(N)=O)NC(=O)CNC(=O)[C@@H]1CCCCNC(=O)CC[C@H](NC(=O)[C@H](CC(=O)O)NC(=O)[C@H](CO)NC(=O)[C@@H](NC(=O)[C@H](Cc2ccccc2)NC(=O)[C@@H](NC(=O)CNC(=O)[C@H](CCC(=O)O)NC(=O)[C@H](C)NC(=O)[C@@H](N)Cc2cnc[nH]2)[C@@H](C)O)[C@@H](C)O)C(=O)N[C@@H](CO)C(=O)N[C@@H](CO)C(=O)N[C@@H](Cc2ccc(O)cc2)C(=O)N1)C(=O)N[C@@H](C)C(=O)N[C@@H](Cc1c[nH]c2ccccc12)C(=O)N[C@@H](CC(C)C)C(=O)N[C@H](C(=O)N[C@@H](CCCCN)C(=O)NCC(=O)N[C@@H](CCCNC(=N)N)C(N)=O)C(C)C (H-HAEGTFTSDESSYKGQAAKEFIAWLVKGR-NH2; lactam 10-14) | 120% | 3.2 h | 1.8 h | 8.42 | 
5 | CC[C@H](C)[C@H](NC(=O)[C@H](Cc1ccccc1)NC(=O)[C@H](CCC(=O)O)NC(=O)[C@H](CCCCN)NC(=O)[C@H](C)NC(=O)[C@H](C)NC(=O)[C@H](CCC(N)=O)NC(=O)CNC(=O)[C@H](CCC(=O)O)NC(=O)[C@@H]1CCC(=O)NCCCC[C@H](NC(=O)[C@H](CC(=O)O)NC(=O)[C@H](CO)NC(=O)[C@@H](NC(=O)[C@H](Cc2ccccc2)NC(=O)[C@@H](NC(=O)CNC(=O)[C@H](CCC(=O)O)NC(=O)[C@H](C)NC(=O)[C@@H](N)Cc2cnc[nH]2)[C@@H](C)O)[C@@H](C)O)C(=O)N[C@@H](CO)C(=O)N[C@@H](CO)C(=O)N[C@@H](Cc2ccc(O)cc2)C(=O)N1)C(=O)N[C@H]1CCCCNC(=O)CC[C@@H](C(=O)NCC(=O)N[C@@H](CCCNC(=N)N)C(N)=O)NC(=O)[C@H](C(C)C)NC(=O)[C@H](CC(C)C)NC(=O)[C@H](Cc2c[nH]c3ccccc23)NC1=O (H-HAEGTFTSDKSSYEEGQAAKEFIKWLVEGR-NH2; lactam 10-14, 24-28) | 70% | 17 h | 2.9 h | 8.15 | 
6 | CC[C@H](C)[C@H](NC(=O)[C@H](Cc1ccccc1)NC(=O)[C@H](CCC(=O)O)NC(=O)[C@H](CCCCN)NC(=O)[C@H](C)NC(=O)[C@H](C)NC(=O)[C@@H]1CCCCNC(=O)CC[C@H](NC(=O)[C@H](CO)NC(=O)[C@@H](NC(=O)[C@H](CC(=O)O)NC(=O)[C@H](CO)NC(=O)[C@@H](NC(=O)[C@H](Cc2ccccc2)NC(=O)[C@@H](NC(=O)CNC(=O)[C@H](CCC(=O)O)NC(=O)[C@H](C)NC(=O)[C@@H](N)Cc2cnc[nH]2)[C@@H](C)O)[C@@H](C)O)C(C)C)C(=O)N[C@@H](Cc2ccc(O)cc2)C(=O)N[C@@H](CC(C)C)C(=O)NCC(=O)N1)C(=O)N[C@@H](C)C(=O)N[C@@H](Cc1c[nH]c2ccccc12)C(=O)N[C@@H](CC(C)C)C(=O)N[C@H](C(=O)N[C@@H](CCCCN)C(=O)NCC(=O)N[C@@H](CCCNC(=N)N)C(N)=O)C(C)C (H-HAEGTFTSDVSEYLGKAAKEFIAWLVKGR-NH2; lactam 12-16) | 770% | 10 h | 2.1 h | 9.22 | 
7 | CC[C@H](C)[C@H](NC(=O)[C@H](Cc1ccccc1)NC(=O)[C@H](CCC(=O)O)NC(=O)[C@H](CCCCN)NC(=O)[C@H](C)NC(=O)[C@H](C)NC(=O)[C@H](CCC(N)=O)NC(=O)[C@@H]1CCC(=O)NCCCC[C@H](NC(=O)[C@H](CO)NC(=O)[C@@H](NC(=O)[C@H](CC(=O)O)NC(=O)[C@H](CO)NC(=O)[C@@H](NC(=O)[C@H](Cc2ccccc2)NC(=O)[C@@H](NC(=O)CNC(=O)[C@H](CCC(=O)O)NC(=O)[C@H](C)NC(=O)[C@@H](N)Cc2cnc[nH]2)[C@@H](C)O)[C@@H](C)O)C(C)C)C(=O)N[C@@H](Cc2ccc(O)cc2)C(=O)N[C@@H](CC(C)C)C(=O)N[C@@H](CCC(=O)O)C(=O)N1)C(=O)N[C@H]1CCCCNC(=O)CC[C@@H](C(=O)NCC(=O)N[C@@H](CCCNC(=N)N)C(N)=O)NC(=O)[C@H](C(C)C)NC(=O)[C@H](CC(C)C)NC(=O)[C@H](Cc2c[nH]c3ccccc23)NC1=O (H-HAEGTFTSDVSKYLEEQAAKEFIKWLVEGR-NH2; lactam 12-16, 24-28) | 460% | 18 h | 4.1 h | 9.00 | 
